One assay has as its system PR1 genes. Briefly: PR-1 protein/gene expression in tobacco leaves (immunoblot). The assay is classed as in vivo. The following applies: N.t. cv. Xanthi nc. As for the experimental part: The level of PR1 protein in tobacco leaves was analyzed by immunoblot analysis to establish biological activity. Three leaf discs (1 cm in diameter) were homogenized in 200 microliters of buffer containing 50 mM Tris (pH 8.0), 1 mM EDTA, 12 mM beta-mercaptoethanol and 10 mg/ml phenylmethylsulfonyl fluoride. The homogenate was centrifuged at full speed for 10 minutes in an Eppendorf microcentrifuge. The supernatant was fractionated with 15% polyacrylamide gel under denatured conditions. Protein blotting was done with a monoclonal antibody specific to PR1 protein and protein-antibody complexes were detected with an ECL kit from Amersham.
PR gene expression is both induced by SA and associated with the development of SAR. Therefore, it was of interest to test whether SA's mechanism of action for the induction of PR genes was via its inhibition of catalases which leads to enhanced H2 O2 levels. To address this question, H2 O2 abundance was artificially raised in tobacco leaves by treating with H2 O2 or compounds which either inhibit the catalase activity, like SA itself, or promote generation of H2 O2 in vivo. […]
In general terms: A western blot detects proteins with antibodies after separation by electrophoresis.

For the next assay, the system named is TMV. The assay is classed as in vivo, tobacco mosaic virus. The settings on record: N.t. cv. Xanthi nc plants, compared to water-treated control plants. The method, then: The SA/SAG valves are given in micrograms per gram fresh weight of leaf tissue and represent averages of values from 3-6 treated plants at 6 days past injection. […] For determination of reduction in lesion size, longitudinal halves of 2 leaves on 3-6 plants were injection with chemicals, and six days later the entire leaf was infected with TMV. Twenty lesions were measured on each half of the leaf seven days post infection; the values given represent the average percent reduction in lesion diameter in the treated leaf half compared to the untreated half.

The test system of a further assay is catalase. Kind of assay: In vivo catalase activity in tobacco suspension cells (oxygen electrode). In kind it is cell-based. The method, then: This was determined by adding increasing concentrations of SA or INA to tobacco suspension cells (derived from cultivar Xanthi nc), as described below. The tobacco suspension cell culture was grown in the dark in MS medium at approximately 22° C. with agitation (160 rpm). Cells were maintained by diluting 10-fold every 5 days. For experimentation, 5 ml of suspension cells obtained 3 days after dilution was transferred to a 25 ml Erlenmeyer flask and agitated (100 rpm) at room temperature in the absence or presence of SA or INA which had been adjusted to pH 5.8. After 1 hr, 1 ml of the treated cell suspension was transferred to 7 ml of fresh MS medium containing SA or INA in a 10 ml beaker (density was approximately 6 mg cells per ml). Cells were maintained in suspension with a magnetic stir bar. In vivo catalase activity was determined by measuring, with an oxygen electrode, the rate of H2 O2 -dependent O2 production immediately after addition of H2 O2 to 10 mM final concentration.

The test system of another assay is SABP/catalase. Briefly: Competition with 14C-labeled SA for SABP/catalase in crude leaf extracts. The assay is classed as binding, tobacco. The following applies: in vitro.
The next assay deals with ascorbate peroxidase. Briefly: Ascorbate peroxidase activity in tobacco leaf extracts. The assay is classed as biochemical, Nicotiana tabacum cv. Xanthi nc. The following applies: 200 μM compound, corrected for quenching of auto oxidation. As for the experimental part: […] Two grams of leaves from 6-8 week old tobacco plants (Nicotiana tabacum cv. Xanthi nc) grown at 22° C. in a 14 hr light cycle were homogenized under liquid nitrogen using a pestle and mortar.
To obtain ascorbate peroxidase-containing extracts, the soluble proteins were extracted by grinding the powder in 10 ml of 100 mM potassium phosphate, pH 7, containing […] ascorbate and 1% (weight/volume) polyvinylpyrrolidone, with a small amount of quartz sand. The homogenate was centrifuged at 14,000 g for 5 min. […] The pellet resulting from centrifugation (14,000 g, 15 min.) was resuspended in extraction buffer (100 mM potassium phosphate, pH7, containing 0.25 mM ascorbate and 1% (weight/volume) polyvinylpyrrolidone) and desalted on a PD-10 column (Pharmacia) equilibrated with 50 mM potassium phosphate, pH 7, containing 100 μM ascorbate. The extract was used immediately. […] The amount of protein per assay was 30-50 μg. Oxidation of ascorbate was followed by the decrease in the absorbance at 290 nm.
The values illustrated in FIG. 17 are the mean values for three replicated assays.

The record followed here is patent US5989846A, “Assays to identify inducers of plant defense resistance” (Rutgers, The State University of New Jersey, priority 1995, dated 1999).

On to `O=C(O)c1cc(Cl)cc(Cl)c1O` [3,5-Dichlorosalicylic acid], for which, in the assay with PR1 genes, the “Induction of PR-1 protein synthesis / PR-1 gene induction (in words)” value is on record as “potent inducers of PR-1 protein synthesis”. In addition, in the assay with TMV, the “Enhanced resistance to TMV infection (reduction in lesion size)” value is recorded as “enhanced resistance to TMV infection”. In the assay on catalase, the “Inhibition of catalase activity in vivo (in words)” value (from here on “Inhibition of catalase activity”) is “very effectively inhibited catalase activity”. Also, the “Inhibition of binding of 14C-labeled SA to SABP/catalase in vitro (in words)” value in the assay on SABP/catalase was “very effectively inhibited”. For the same molecule, the “% Inhibition of ascorbate peroxidase” value in the assay with ascorbate peroxidase is listed as 59 ± 5%.

With `O=C(O)c1cc(Cl)ccc1O` [5-Chlorosalicylic acid], in the assay with PR1 genes, the “Induction of PR-1 protein synthesis / PR-1 gene induction (in words)” value is on record as “potent inducers of PR-1 protein synthesis”. Besides, the “Enhanced resistance to TMV infection (reduction in lesion size)” value with TMV is “enhanced resistance to TMV infection”. The “Inhibition of catalase activity” value in the assay with catalase was “very effectively inhibited catalase activity”. Further, the “Inhibition of binding of 14C-labeled SA to SABP/catalase in vitro (in words)” value in the assay on SABP/catalase is recorded as “very effectively inhibited”. Also, the “% Inhibition of ascorbate peroxidase” value in the assay with ascorbate peroxidase is 73 ± 5%.

For the molecule `O=C(O)c1ccc(Cl)cc1O` [4-Chlorosalicylic acid], the “Induction of PR-1 protein synthesis / PR-1 gene induction (in words)” value in the assay on PR1 genes was “potent inducers of PR-1 protein synthesis”. Moreover, the “Enhanced resistance to TMV infection (reduction in lesion size)” value in the assay with TMV is reported as “enhanced resistance to TMV infection”. In addition, the “Inhibition of catalase activity” value in the assay on catalase is recorded as “very effectively inhibited catalase activity”. In addition, the “Inhibition of binding of 14C-labeled SA to SABP/catalase in vitro (in words)” value in the assay with SABP/catalase is listed as “very effectively inhibited”. The “% Inhibition of ascorbate peroxidase” value in the assay on ascorbate peroxidase was determined as 58 ± 4%.
